Where two headings read alike, the source gives them in different places.
Columns and labels:
BSA = biological target: T1, BSA (Bos taurus, UniProt P02769); design: Intact protein LC/MS covalent labelling, fragments in pools of five, 200 uM each, 4 °C; conditions: 24 h, 4 °C, pool of five; 200 µM; covalent
T1 construct: gene ALB

NNMT (hNNMT) = biological target: T2, NNMT (hNNMT) (Homo sapiens, UniProt P40261); design: Intact protein LC/MS covalent labelling, fragments in pools of five, 200 uM each, 4 °C; conditions: 24 h, 4 °C, pool of five; 200 µM; covalent
T2 construct: wild type, N-terminal His6 tag kept (no cleavage described), E. coli, construct 31248 Da
T2 sequence (P40261 1-264): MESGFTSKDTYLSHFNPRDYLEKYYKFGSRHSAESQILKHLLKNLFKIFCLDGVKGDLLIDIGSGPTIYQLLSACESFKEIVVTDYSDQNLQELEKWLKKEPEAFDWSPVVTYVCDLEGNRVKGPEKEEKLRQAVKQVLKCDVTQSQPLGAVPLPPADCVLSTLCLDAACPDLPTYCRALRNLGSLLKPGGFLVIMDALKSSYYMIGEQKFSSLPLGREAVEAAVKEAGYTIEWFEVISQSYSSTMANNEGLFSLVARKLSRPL

NUDT7 = biological target: T3, NUDT7 (Homo sapiens, UniProt P0C024); design: Intact protein LC/MS covalent labelling, fragments in pools of five, 200 uM each, 4 °C; conditions: 24 h, 4 °C, pool of five; 200 µM; covalent
T3 construct: residues 14-235, E. coli, pNIC28-Bsa4, N-terminal His6 tag removed by TEV, construct 26672 Da
T3 sequence (P0C024 14-235): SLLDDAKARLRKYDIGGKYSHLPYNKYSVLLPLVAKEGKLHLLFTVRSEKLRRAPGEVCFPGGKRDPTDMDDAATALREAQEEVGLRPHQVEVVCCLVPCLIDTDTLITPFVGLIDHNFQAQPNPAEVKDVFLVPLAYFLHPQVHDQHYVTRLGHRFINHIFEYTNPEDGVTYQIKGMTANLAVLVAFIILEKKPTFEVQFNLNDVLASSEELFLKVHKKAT

OTUB2 (OTUB2A) = biological target: T4, OTUB2 (OTUB2A) (Homo sapiens, UniProt Q96DC9); design: Intact protein LC/MS covalent labelling, fragments in pools of five, 200 uM each, 4 °C; conditions: 24 h, 4 °C, pool of five; 200 µM; covalent
T4 construct: full length residues 1-234, E. coli BL21(DE3)-R3, His tag removed by TEV, construct 27312 Da
T4 sequence (Q96DC9 1-234): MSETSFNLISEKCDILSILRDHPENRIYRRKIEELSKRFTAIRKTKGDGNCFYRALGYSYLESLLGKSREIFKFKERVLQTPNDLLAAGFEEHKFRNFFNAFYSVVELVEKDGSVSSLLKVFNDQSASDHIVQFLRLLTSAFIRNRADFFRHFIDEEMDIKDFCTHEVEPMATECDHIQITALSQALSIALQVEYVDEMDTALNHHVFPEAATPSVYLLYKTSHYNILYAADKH

PCAF = biological target: T5, PCAF (Homo sapiens, UniProt Q92831); design: Intact protein LC/MS covalent labelling, fragments in pools of five, 200 uM each, 4 °C; conditions: 24 h, 4 °C, pool of five; 200 µM; covalent
T5 construct: gene KAT2B
T5 sequence (Q92831 whole entry, the tested form may be a part): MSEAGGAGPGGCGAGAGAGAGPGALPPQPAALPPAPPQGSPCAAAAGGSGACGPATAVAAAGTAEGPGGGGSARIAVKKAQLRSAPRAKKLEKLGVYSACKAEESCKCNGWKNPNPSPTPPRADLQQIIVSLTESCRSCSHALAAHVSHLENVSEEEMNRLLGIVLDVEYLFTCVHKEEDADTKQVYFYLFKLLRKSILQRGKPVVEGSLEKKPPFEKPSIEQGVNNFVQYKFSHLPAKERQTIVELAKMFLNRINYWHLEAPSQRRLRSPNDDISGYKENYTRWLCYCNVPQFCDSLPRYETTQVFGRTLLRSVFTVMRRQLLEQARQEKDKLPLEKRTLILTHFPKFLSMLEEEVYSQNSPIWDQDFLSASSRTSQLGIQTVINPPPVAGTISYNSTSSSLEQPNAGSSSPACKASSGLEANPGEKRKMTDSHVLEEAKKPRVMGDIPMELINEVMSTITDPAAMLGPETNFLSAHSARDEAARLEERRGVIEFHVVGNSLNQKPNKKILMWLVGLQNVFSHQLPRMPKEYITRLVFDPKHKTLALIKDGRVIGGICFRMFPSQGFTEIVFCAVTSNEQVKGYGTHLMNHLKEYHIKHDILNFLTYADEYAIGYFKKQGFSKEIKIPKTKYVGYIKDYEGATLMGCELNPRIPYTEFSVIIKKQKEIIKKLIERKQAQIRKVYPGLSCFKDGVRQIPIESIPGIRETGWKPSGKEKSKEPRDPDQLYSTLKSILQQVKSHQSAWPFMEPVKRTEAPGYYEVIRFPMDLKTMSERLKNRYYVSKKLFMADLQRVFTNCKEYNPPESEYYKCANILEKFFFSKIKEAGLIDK

in vitro [1] = experiment: in vitro; design: species or system CCD841, HEK293; conditions: human, hb2 cells, read-out: HB-2 Cells Viability (%)
in vitro [2] = experiment: in vitro; design: species or system HB2, HEK293; conditions: human, ccd841 cells
in vitro [3] = experiment: in vitro; design: species or system HB2, CCD841; conditions: human, hek293 cells

T1 sequence (P02769 whole entry, the tested form may be a part): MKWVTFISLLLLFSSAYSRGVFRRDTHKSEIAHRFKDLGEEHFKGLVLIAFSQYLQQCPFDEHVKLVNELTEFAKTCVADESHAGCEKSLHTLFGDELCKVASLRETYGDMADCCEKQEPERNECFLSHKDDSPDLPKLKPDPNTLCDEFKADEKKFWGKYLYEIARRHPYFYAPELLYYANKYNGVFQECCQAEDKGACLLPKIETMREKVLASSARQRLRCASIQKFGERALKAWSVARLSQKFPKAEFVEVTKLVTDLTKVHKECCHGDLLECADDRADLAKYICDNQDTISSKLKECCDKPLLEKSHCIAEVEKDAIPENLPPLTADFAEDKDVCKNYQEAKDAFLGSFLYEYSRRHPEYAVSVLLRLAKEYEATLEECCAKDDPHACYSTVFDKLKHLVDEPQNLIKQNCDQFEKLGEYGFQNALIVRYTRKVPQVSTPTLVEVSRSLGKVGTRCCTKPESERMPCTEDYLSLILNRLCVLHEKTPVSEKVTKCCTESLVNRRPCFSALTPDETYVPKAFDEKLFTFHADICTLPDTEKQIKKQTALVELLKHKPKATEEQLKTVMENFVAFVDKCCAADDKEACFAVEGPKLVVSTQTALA

Row | Structure (SMILES) | BSA (BSA) | NNMT (NNMT (hNNMT)) | NUDT7 (NUDT7) | OTUB2 (OTUB2 (OTUB2A)) | PCAF (PCAF) | viability at 48 h, 10 µM (in vitro [1]) | viability at 48 h, 10 µM (in vitro [2]) | viability at 48 h, 10 µM (in vitro [3])
1 | N#Cc1cccc(CNC(=O)CCl)c1 [PCM-0102936] | 0 | 0 | 0 | 0.32 | 0 | 97.1% | 94.9% | 83.1%
2 | CN(Cc1ccc(F)cc1)C(=O)CCl [PCM-0102939] | 0 | 0 | 0 | 0.1 | 0 | 34.8% | 69.2% | 42.7%
3 | O=C(CCl)N1CCOC1=O [PCM-0102943] | 0 | 0 | 0.08 | 0 | 0 | 101% | 109% | 108%
4 | Cc1nc(C2(NC(=O)CCl)CCCCCC2)no1 [PCM-0102944] | 0 | 0 | 0 | 0 | 0 | 103% | 113% | 129%
5 | Cl.O=C(CCl)NCc1ccccn1 [PCM-0102950] | 0 | 0 | 0 | 0 | 0 | 100% | 109% | 97.4%
6 | C=CC(=O)NCC1CCCc2sc(C)nc21 (stereo not shown) [PCM-0102952] | 0 | 0 | 0 | 0 | 0 | 97.6% | 114% | 95.2%
7 | Cc1ccc(NC(=O)CCl)cc1Br [PCM-0102955] | 0 | 0.78 | 0.27 | 0.14 | 0 | 41.5% | 71.2% | 38.3%
8 | CN(Cc1ccc2c(c1)OCCO2)C(=O)CCl [PCM-0102958] | 0 | 0 | 0.27 | 0.09 | 0 | 74.4% | 81% | 52%
9 | Cc1ccc(C(=O)N2CCN(C(=O)CCl)CC2)cc1 [PCM-0102962] | 0 | 0 | 0 | 0 | 0 | 30.1% | 75.3% | 15.6%
10 | C=CC(=O)N1CCCN(c2ccc(-c3ccccc3)nn2)CC1 [PCM-0102964] | 0 | 0 | 0 | 0 | 0 | 102% | 103% | 87.2%
11 | C=CC(=O)Nc1ccccc1C(=O)OC [PCM-0102967] | 0 | 0 | 0.51 | 0 | 0 | 90.2% | 81% | 68.8%
12 | O=C(CCl)N1CCC(C(=O)N2CCCCC2)CC1 [PCM-0102972] | 0 | 0 | 0 | 0.08 | 0 | 84.6% | 106% | 76.6%
13 | COC(=O)C1CCN(C(=O)CCl)CC1 [PCM-0102978] | 0 | 0 | 0 | 0 | 0 | 100% | 110% | 99.4%
14 | O=C(CCl)N1CCCC1=O [PCM-0102982] | 0 | 0 | 0 | 0 | 0 | 111% | 101% | 114%
